Measured values from US6737383B1, “Herbicidal oxadiazolidines” (priority 1999, dated 2004).

Key:
pigweed = assay: Test B pre/postemergence pigweed; format: in vivo, Amaranthus retroflexus
Summary of the method: (§1)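 Herbicidal effect was estimated by eye on a ten-point control scale after plants spent twelve to sixteen days in a greenhouse following soil or foliar treatment. Foliar sprays targeted plants at one to four leaves; all doses were formulated in a non-phytotoxic solvent with surfactant.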

wheat = assay: Test B pre/postemergence wheat; format: in vivo, Triticum aestivum
Summary of the method: as §1

bamyardgrass = assay: Test B flood test barnyardgrass; format: in vivo, Echinochloa crus-galli
Summary of the method: (§2)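 Flood test on plants grown to the 2-leaf stage; treated plants kept in greenhouse twelve to sixteen days, then visually rated against controls on a 0 (no effect) to 10 (complete control) scale.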

blackgrass = assay: Test B pre/postemergence blackgrass; format: in vivo, Alopecurus myosuroides
Summary of the method: as §1

rice = assay: Test B flood test rice; format: in vivo, Oryza sativa
Summary of the method: as §2

bedstraw = assay: Test B pre/postemergence bedstraw; format: in vivo, Galium aparine
Summary of the method: as §1

wild oat = assay: Test B pre/postemergence wild oat; format: in vivo, Avena fatua
Summary of the method: as §1

velvetleaf = assay: Test B pre/postemergence velvetleaf; format: in vivo, Abutilon theophrasti
Summary of the method: as §1

morningglory = assay: Test B pre/postemergence morningglory; format: in vivo, Ipomoea hederacea
Summary of the method: as §1

surinam grass = assay: Test B pre/postemergence surinam grass; format: in vivo, Brachiaria decumbens
Summary of the method: as §1

purple nutsedge = assay: Test B pre/postemergence purple nutsedge; format: in vivo, Cyperus rotundus
Summary of the method: as §1

duck salad = assay: Test B flood test duck salad; format: in vivo, Heteranthera limosa
Summary of the method: as §2

rape = assay: Test B pre/postemergence rape; format: in vivo, Brassica napus
Summary of the method: as §1

corn = assay: Test B pre/postemergence corn; format: in vivo, Zea mays
Summary of the method: as §1

smallflower flatsedge = assay: Test B flood test smallflower flatsedge; format: in vivo, Cyperus difformis
Summary of the method: as §2

cocklebur = assay: Test B pre/postemergence cocklebur; format: in vivo, Xanthium strumarium
Summary of the method: as §1

[1] = Postemergence, Rate 62 g/ha, scale 0 to 10, 0 is no effect, 10 is complete control
[2] = Postemergence, Rate 250 g/ha, scale 0 to 10, 0 no effect, 10 complete control
[3] = Preemergence, Rate 62 g/ha, scale 0 to 10 (0 no effect, 10 complete control)
[4] = Preemergence, Rate 125 g/ha, scale 0 to 10 (0 no effect, 10 complete control)
[5] = Preemergence, Rate 250 g/ha, scale of 0 to 10 where 0 is no effect and 10 is complete control
[6] = Preemergence, Rate 500 g/ha, scale 0 (no effect) to 10 (complete control)
[7] = Rate 125 g/ha, Postemergence, scale 0 to 10, 0 no effect, 10 complete control
[8] = Rate 500 g/ha, Postemergence, scale 0 to 10, 0 no effect, 10 complete control
[9] = Rate 125 g/ha, Postemergence section (flood test species), scale 0 to 10, 0 no effect, 10 complete control
[10] = Rate 500 g/ha, listed under Postemergence (flood test species), scale 0 to 10, 0 no effect, 10 complete control
[11] = flood test, listed under Postemergence, Rate 250 g/ha, scale 0 to 10, 0 no effect, 10 complete control

Compound: COc1cccc(C)c1-n1c(=O)on(C(=O)N(c2ccc(F)cc2)C(C)C)c1=O [Compound 62]
- Redroot pigweed plant response rating (pigweed; [1]): 0
- Redroot pigweed plant response rating (pigweed; [2]): 0
- Redroot pigweed plant response rating (pigweed; [3]): 0
- Plant response rating, Redroot pigweed (pigweed; [4]): 0
- Plant response rating, Redroot pigweed (pigweed; [5]): 0
- Redroot pigweed plant response rating (pigweed; [6]): 0
- Redroot pigweed plant response rating (pigweed; [7]): 0
- Redroot pigweed plant response rating (pigweed; [8]): 0
- Wheat plant response rating (wheat; [1]): 0
- Wheat plant response rating (wheat; [2]): 0
- Wheat plant response rating (wheat; [3]): 0
- Plant response rating, Wheat (wheat; [4]): 0
- Plant response rating, Wheat (wheat; [5]): 0
- Wheat plant response rating (wheat; [6]): 0
- Wheat plant response rating (wheat; [7]): 0
- Wheat plant response rating (wheat; [8]): 0
- Barnyardgrass plant response rating (bamyardgrass; [1]): 0
- Barnyardgrass plant response rating (bamyardgrass; [9]): 0
- Barnyardgrass plant response rating (bamyardgrass; [10]): 0
- Barnyardgrass plant response rating (bamyardgrass; [11]): 0
- Blackgrass plant response rating (blackgrass; [1]): 0
- Blackgrass plant response rating (blackgrass; [2]): 0
- Blackgrass plant response rating (blackgrass; [3]): 0
- Plant response rating, Blackgrass (blackgrass; [4]): 0
- Plant response rating, Blackgrass (blackgrass; [5]): 2
- Blackgrass plant response rating (blackgrass; [6]): 4
- Blackgrass plant response rating (blackgrass; [7]): 0
- Blackgrass plant response rating (blackgrass; [8]): 2
- Rice plant response rating (rice; [1]): 0
- Rice plant response rating (rice; [9]): 0
- Rice plant response rating (rice; [10]): 0
- Rice plant response rating (rice; [11]): 0
- Bedstraw plant response rating (bedstraw; [1]): 0
- Bedstraw plant response rating (bedstraw; [2]): 2
- Bedstraw plant response rating (bedstraw; [3]): 0
- Plant response rating, Bedstraw (bedstraw; [4]): 0
- Plant response rating, Bedstraw (bedstraw; [5]): 0
- Bedstraw plant response rating (bedstraw; [6]): 4
- Bedstraw plant response rating (bedstraw; [7]): 0
- Wild oats plant response rating (wild oat; [1]): 0
- Wild oats plant response rating (wild oat; [2]): 3
- Wild oats plant response rating (wild oat; [3]): 0
- Plant response rating, Wild oats (wild oat; [4]): 0
- Plant response rating, Wild oats (wild oat; [5]): 0
- Wild oats plant response rating (wild oat; [6]): 0
- Wild oats plant response rating (wild oat; [7]): 0
- Wild oats plant response rating (wild oat; [8]): 3
- Velvetleaf plant response rating (velvetleaf; [1]): 0
- Velvetleaf plant response rating (velvetleaf; [2]): 2
- Velvetleaf plant response rating (velvetleaf; [3]): 0
- Plant response rating, Velvetleaf (velvetleaf; [4]): 0
- Plant response rating, Velvetleaf (velvetleaf; [5]): 0
- Velvetleaf plant response rating (velvetleaf; [6]): 0
- Velvetleaf plant response rating (velvetleaf; [7]): 0
- Velvetleaf plant response rating (velvetleaf; [8]): 7
- Morningglory plant response rating (morningglory; [1]): 2
- Morningglory plant response rating (morningglory; [2]): 2
- Morningglory plant response rating (morningglory; [3]): 0
- Plant response rating, Morningglory (morningglory; [4]): 0
- Plant response rating, Morningglory (morningglory; [5]): 0
- Morningglory plant response rating (morningglory; [6]): 3
- Morningglory plant response rating (morningglory; [7]): 2
- Morningglory plant response rating (morningglory; [8]): 6
- B. signalgrass plant response rating (surinam grass; [1]): 0
- B. signalgrass plant response rating (surinam grass; [2]): 2
- B. signalgrass plant response rating (surinam grass; [3]): 0
- Plant response rating, B. signalgrass (surinam grass; [4]): 0
- Plant response rating, B. signalgrass (surinam grass; [5]): 0
- B. signalgrass plant response rating (surinam grass; [6]): 0
- B. signalgrass plant response rating (surinam grass; [7]): 0
- B. signalgrass plant response rating (surinam grass; Rate 500 g/ha, Postemergence, scale of 0 to 10 where 0 is no effect and 10 is complete control): 4
- Nutsedge plant response rating (purple nutsedge; [1]): 0
- Nutsedge plant response rating (purple nutsedge; [2]): 0
- Nutsedge plant response rating (purple nutsedge; [3]): 0
- Plant response rating, Nutsedge (purple nutsedge; [4]): 0
- Plant response rating, Nutsedge (purple nutsedge; [5]): 0
- Nutsedge plant response rating (purple nutsedge; [6]): 0
- Nutsedge plant response rating (purple nutsedge; [7]): 0
- Nutsedge plant response rating (purple nutsedge; [8]): 3
- Ducksalad plant response rating (duck salad; [1]): 0
- Ducksalad plant response rating (duck salad; [9]): 0
- Ducksalad plant response rating (duck salad; [10]): 0
- Ducksalad plant response rating (duck salad; [11]): 0
- Rape plant response rating (rape; [1]): 0
- Rape plant response rating (rape; [2]): 0
- Rape plant response rating (rape; [3]): 0
- Plant response rating, Rape (rape; [4]): 0
- Plant response rating, Rape (rape; [5]): 0
- Rape plant response rating (rape; [6]): 0
- Rape plant response rating (rape; [7]): 0
- Rape plant response rating (rape; [8]): 0
- Corn plant response rating (corn; [1]): 0
- Corn plant response rating (corn; [2]): 0
- Corn plant response rating (corn; [3]): 0
- Plant response rating, Corn (corn; [4]): 0
- Plant response rating, Corn (corn; [5]): 0
- Corn plant response rating (corn; [6]): 0
- Corn plant response rating (corn; [7]): 0
- Corn plant response rating (corn; [8]): 0
- S. Flatsedge plant response rating (smallflower flatsedge; [1]): 0
- S. Flatsedge plant response rating (smallflower flatsedge; [9]): 0
- S. Flatsedge plant response rating (smallflower flatsedge; [10]): 0
- S. Flatsedge plant response rating (smallflower flatsedge; [11]): 0
- Cocklebur plant response rating (cocklebur; [1]): 0
- Cocklebur plant response rating (cocklebur; [2]): 6
- Cocklebur plant response rating (cocklebur; [3]): 0
- Plant response rating, Cocklebur (cocklebur; [5]): 0
- Cocklebur plant response rating (cocklebur; [6]): 5
- Cocklebur plant response rating (cocklebur; [7]): 4
- Cocklebur plant response rating (cocklebur; [8]): 6
